Here are results for three molecules from patent US20080032989A1, “Method of treating inflammatory diseases using tyroskine kinase inhibitors” (priority 2006, published 2008).

Read-outs that look alike come from different tables or passages of the source.

Data set [1] addresses EGFR (Homo sapiens, UniProt P00533). Conditions: Table 7; cited from earlier work.
The test system of data set [2] is B cells from naïve DBA/1 mice.
The subject of data set [3] is autoreactive B cell responses in mice with CIA. Put plainly: Synovial array profiling of serum autoantibodies in CIA mice. The data set is classed as in vivo, mouse. Conditions: 100 mg/kg imatinib, day 49 sera. Here is the method: M. Synovial array analysis. As described (Robinson, W. H., et al., Nat Med 8:295-301, (2002); Hueber, W., et al., Arthritis Rheum 52:2645-2655, (2005)), 500+ peptides and proteins representing autoantigens were printed on SuperEpoxy slides (TeleChem), arrays were incubated with 1:150 dilutions of mouse sera, followed by Cy3-labeled anti-mouse IgG/M antibody (Jackson Immunoresearch), and scanned using a GenePix 4000B scanner. Median feature intensities for each antigen were calculated from the 4-8 duplicate features representing each antigen.
. A robotic microarrayer was used to produce synovial arrays containing a spectrum of proteins and peptides representing candidate autoantigens in RA and CIA (Robinson, W. H., et al., Nat Med 8:295-301, (2002); Hueber, W., et al., Arthritis Rheum 52:2645-2655, (2005)). Arrays were incubated with 1:150 dilutions of sera, autoantibody binding detected with Cy3-labeled anti-mouse IgG/M, and arrays scanned and median fluorescence for each antigen determined. […]. Cluster and TreeView software was applied to order and display the array reactivity as a heatmap. […]

In data set [4] the test system is synovial fluid monocytes. Put plainly: M-CSF-induced differentiation of RA synovial fluid monocytes to macrophages (morphology). It is filed as cell-based, human. Conditions: 5 μM imatinib with M-CSF, 72 hours. An excerpt: H. Macrophage isolation and stimulation. […]. […]
The subject of data set [5] is EAE in C57B/6 mice. Put plainly: Experimental autoimmune encephalomyelitis (EAE). It is filed as in vivo, mouse. The note with it: 100 mg/kg twice daily vs PBS-vehicle.
Data set [6] concerns established collagen-induced arthritis (CIA) in DBA/1 mice. Put plainly: Treatment of established collagen-induced arthritis (CIA). The note with it: 33 and 100 mg/kg. The data set is classed as in vivo, mouse.
Data set [7] relates to anti-CII T cells. Conditions: mouse, 24 h.
For data set [8], the target named is T1, c-Kit (Mus musculus, UniProt P05532).
T1 construct: endogenous in cells; host or cells: C1.MC/57.1 mouse mast cell line
T1 sequence (P05532 25-979): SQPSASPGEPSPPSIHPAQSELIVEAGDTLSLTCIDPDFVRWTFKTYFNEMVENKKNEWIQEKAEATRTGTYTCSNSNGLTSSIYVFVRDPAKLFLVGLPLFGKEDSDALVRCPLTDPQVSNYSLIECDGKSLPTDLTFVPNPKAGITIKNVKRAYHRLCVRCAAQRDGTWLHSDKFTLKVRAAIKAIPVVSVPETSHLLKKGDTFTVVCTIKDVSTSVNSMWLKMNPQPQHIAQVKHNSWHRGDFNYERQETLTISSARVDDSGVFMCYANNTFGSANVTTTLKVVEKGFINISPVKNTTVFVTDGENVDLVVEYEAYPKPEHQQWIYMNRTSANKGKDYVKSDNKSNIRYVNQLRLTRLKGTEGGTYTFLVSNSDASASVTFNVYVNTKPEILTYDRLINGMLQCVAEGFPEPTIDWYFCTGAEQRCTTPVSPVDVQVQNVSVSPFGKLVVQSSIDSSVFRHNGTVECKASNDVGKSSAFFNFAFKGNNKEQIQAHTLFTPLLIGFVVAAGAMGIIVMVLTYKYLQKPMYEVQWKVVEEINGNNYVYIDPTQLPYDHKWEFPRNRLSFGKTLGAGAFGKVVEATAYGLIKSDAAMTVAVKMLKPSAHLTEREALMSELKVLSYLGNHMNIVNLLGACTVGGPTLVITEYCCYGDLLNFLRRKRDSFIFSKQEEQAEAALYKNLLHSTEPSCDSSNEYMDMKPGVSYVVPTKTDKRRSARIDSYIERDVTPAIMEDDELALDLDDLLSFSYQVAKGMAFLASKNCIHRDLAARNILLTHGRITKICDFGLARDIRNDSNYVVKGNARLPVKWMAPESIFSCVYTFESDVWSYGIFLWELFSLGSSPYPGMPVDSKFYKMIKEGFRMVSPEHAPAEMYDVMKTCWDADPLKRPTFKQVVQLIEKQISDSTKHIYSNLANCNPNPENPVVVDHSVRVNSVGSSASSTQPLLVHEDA
Put plainly: SCF-induced mast cell signaling, immunoblot and RPP lysate array. It is filed as cell-based. Conditions: mast cells. Background: Immunoblotting shows a protein as a band on a membrane.

The test system of data set [9] is collagen-induced arthritis (CIA) in DBA/1 mice. Conditions: for severity of CIA (scores, paw measurements), direct comparison study: CGP53716 daily i.p. from 1 day prior to induction.
Data set [10] relates to splenocytes expressing CII-specific TCR.
Data set [11] deals with C1.MC/57.1 mast cells. Put plainly: SCF-stimulated mast cell cytokine production. Conditions: 100 ng/mL SCF, 48 hrs, imatinib 1 μM and 5 μM.
Data set [12] addresses T2, c-Kit (Homo sapiens, UniProt P10721). Put plainly: In vitro c-Kit phosphorylation assay (HTScan c-Kit Kinase Assay). It is filed as biochemical. Also noted: purchased Cell Signaling. The note with it: 30 minutes, time-resolved fluorescence, FIG. 11A.
Data set [13] has as its target T2, c-Kit. Conditions: Table 5; read-out: Kit Inhibitory Profile (IC50); cited from earlier work.
For data set [14] the following is noted: I.P. 100 mg/kg, cited from earlier work.
The test system of data set [15] is PDGFR. Conditions: Table 5; read-out: PDGFR Inhibitory Profile (IC50); cited from earlier work.
Data set [16] has as its system EGFR, FGFR, insulin receptors, Src, Lyn, PKA and PKC. The note with it: clinically relevant concentrations; cited from earlier work.
Data set [17] deals with PDGFR. Conditions: read-out: IC50 for PDGFbb-induced FLS proliferation (PDGFR); FLS from human RA patient, H3-thymidine incorporation; FIG. 11B. Background: Uptake of a labelled nucleoside into DNA is a usual measure of proliferation.
Data set [18] deals with FGFR. The note with it: literature; cited from earlier work.
Data set [19] concerns the target Abl (Homo sapiens, UniProt P00519). The note with it: literature; cited from earlier work.
[20] abbreviates: CII-specific (anti-CII) TCR transgenic, 1 μM.
Where [21] appears, read: CII-specific (anti-CII) TCR transgenic, 5 μM.
Where [22] appears, read: CII-specific (anti-CII) TCR transgenic, 10 μM.
Setting [23] is: CII-specific TCR transgenic, 1 μM.
[24] abbreviates: CII-specific TCR transgenic, 5 μM.
Setting [25] is: CII-specific TCR transgenic, 10 μM.
[26] abbreviates: 0-5 μM imatinib, SCF 10 minutes, immunoblot.

T2 sequence (P10721 544-976 limits assumed): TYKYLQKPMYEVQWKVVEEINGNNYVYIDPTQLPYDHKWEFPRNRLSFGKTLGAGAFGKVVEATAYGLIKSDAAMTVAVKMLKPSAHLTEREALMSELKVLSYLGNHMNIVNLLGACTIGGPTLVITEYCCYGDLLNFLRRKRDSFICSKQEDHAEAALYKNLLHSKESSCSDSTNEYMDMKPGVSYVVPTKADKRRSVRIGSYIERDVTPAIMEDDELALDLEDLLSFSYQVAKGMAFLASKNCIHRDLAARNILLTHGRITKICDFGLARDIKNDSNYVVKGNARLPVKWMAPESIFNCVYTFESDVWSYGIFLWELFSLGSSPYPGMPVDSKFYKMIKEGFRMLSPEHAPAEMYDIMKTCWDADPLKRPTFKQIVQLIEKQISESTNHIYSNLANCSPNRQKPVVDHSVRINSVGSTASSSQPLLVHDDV
Chain of Abl (P00519 whole entry, species assumed): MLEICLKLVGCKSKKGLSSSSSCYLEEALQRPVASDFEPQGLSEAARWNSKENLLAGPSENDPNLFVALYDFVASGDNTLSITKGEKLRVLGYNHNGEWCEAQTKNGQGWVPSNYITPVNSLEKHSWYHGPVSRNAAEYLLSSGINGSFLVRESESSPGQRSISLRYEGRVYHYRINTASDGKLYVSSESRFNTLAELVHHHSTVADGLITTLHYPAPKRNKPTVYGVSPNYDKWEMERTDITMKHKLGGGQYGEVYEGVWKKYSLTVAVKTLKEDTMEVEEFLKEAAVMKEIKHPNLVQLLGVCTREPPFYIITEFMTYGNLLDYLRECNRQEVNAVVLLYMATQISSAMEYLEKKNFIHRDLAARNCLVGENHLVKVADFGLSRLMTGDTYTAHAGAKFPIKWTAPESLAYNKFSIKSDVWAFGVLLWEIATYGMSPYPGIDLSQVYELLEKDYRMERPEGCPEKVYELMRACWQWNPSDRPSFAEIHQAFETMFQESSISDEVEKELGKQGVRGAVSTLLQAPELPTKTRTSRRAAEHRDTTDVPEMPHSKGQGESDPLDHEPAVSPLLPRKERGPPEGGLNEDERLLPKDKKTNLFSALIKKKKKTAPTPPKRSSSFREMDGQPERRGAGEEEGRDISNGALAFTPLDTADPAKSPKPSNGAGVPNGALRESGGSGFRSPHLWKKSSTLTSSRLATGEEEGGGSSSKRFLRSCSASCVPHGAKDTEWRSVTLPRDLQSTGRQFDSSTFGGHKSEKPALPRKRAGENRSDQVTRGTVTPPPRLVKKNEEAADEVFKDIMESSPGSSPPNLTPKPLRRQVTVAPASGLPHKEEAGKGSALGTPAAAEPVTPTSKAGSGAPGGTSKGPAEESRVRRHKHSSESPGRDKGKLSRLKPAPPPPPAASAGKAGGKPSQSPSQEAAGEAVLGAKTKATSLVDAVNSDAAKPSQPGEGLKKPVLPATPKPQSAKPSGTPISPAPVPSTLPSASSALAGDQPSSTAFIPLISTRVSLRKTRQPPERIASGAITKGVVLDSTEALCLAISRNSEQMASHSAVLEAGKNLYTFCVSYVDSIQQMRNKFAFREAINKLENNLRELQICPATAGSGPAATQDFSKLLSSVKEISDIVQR
Chain of EGFR (P00533 25-1210, species assumed): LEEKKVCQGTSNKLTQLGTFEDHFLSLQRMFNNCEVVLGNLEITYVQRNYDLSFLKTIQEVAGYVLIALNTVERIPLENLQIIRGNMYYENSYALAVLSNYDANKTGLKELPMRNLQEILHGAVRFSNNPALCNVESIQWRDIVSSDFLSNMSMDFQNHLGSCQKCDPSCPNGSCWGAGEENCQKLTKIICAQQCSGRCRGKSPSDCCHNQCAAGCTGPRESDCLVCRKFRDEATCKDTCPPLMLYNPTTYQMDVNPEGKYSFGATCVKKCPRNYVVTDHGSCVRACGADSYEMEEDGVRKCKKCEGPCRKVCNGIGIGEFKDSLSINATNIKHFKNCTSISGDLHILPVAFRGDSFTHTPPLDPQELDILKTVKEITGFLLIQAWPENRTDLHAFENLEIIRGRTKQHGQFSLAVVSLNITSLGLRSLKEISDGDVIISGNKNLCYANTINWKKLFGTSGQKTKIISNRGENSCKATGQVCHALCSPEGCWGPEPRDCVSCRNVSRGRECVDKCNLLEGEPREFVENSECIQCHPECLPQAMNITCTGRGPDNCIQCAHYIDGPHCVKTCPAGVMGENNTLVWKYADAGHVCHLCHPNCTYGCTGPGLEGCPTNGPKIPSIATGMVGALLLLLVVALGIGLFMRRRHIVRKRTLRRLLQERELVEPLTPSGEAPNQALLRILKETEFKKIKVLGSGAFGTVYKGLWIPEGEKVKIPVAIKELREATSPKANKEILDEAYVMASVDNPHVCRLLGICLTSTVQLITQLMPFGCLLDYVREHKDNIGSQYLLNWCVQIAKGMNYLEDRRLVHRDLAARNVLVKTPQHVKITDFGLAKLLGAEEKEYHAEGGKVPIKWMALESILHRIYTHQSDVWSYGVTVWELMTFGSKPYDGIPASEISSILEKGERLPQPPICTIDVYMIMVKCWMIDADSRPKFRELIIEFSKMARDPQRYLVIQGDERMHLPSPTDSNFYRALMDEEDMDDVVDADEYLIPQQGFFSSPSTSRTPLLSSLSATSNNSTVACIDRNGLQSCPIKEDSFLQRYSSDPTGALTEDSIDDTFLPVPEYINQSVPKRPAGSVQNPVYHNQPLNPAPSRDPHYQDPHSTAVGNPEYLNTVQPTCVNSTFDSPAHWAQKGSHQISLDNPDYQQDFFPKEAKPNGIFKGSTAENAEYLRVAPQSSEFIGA

For `C[C@@H](Nc1ncnc2[nH]c(-c3ccc(O)cc3)cc12)c1ccccc1` [PKI-166], the “EGFR Inhibitory profile (with IC50s when available)” value in data set [1] is given as “potent”.
For the molecule `Cc1ccc(NC(=O)c2ccc(CN3CCN(C)CC3)cc2)cc1Nc1nccc(-c2cccnc2)n1` [Imatinib], the “IgM production by LPS-stimulated B cells” value in data set [2] (imatinib 1 μM) is “mildly reduced”; in data set [2] (imatinib 10 μM), “most significant reduction”. For the same molecule, the “expansion (epitope spreading) of autoreactive B cell responses” value in data set [3] is “reduced expansion of autoreactive B cell responses”. Also, in data set [4], the “differentiation of synovial fluid monocytes into macrophages (morphology)” value is reported as “blocked the differentiation of synovial fluid monocytes from human RA patients into macrophages”. The “onset and severity of EAE” value in data set [5] is “a delay in the onset and reduced severity of EAE”. Moreover, in [6] (p<0.05 after 10 days of treatment), the “progression of established arthritis (visual score, mean paw thickness)” value is listed as “inhibited the progression of established arthritis”. Moreover, the “histopathology: synovitis, pannus, and erosion scores” value in [6] (treatment of established CIA, p<0.05) was “statistically significant reductions in synovitis, pannus, and erosion scores”; in data set [9] (CIA prevention study, 33 and 100 mg/kg, p<0.01 synovitis and erosion, p<0.05 pannus), “statistically significant reductions in synovitis, pannus, and erosion scores”. For the same molecule, the “Early apoptosis (PI− AnnV+)” value was found to be 3.8% in [7] (setting [20]); 5.2% in data set [7] (setting [21]); 6.2% in data set [7] (setting [22]); 4.6% in data set [7] (setting [23]); 5.3% in [7] (setting [24]); 6.6% in data set [7] (setting [25]). The “Early apoptosis (PI− AnnV+)” value in data set [7] (anti-CII TCR transgenic, 1 μM) was determined as 3.4%; in [7] (anti-CII TCR transgenic, 5 μM), 5.9%; in data set [7] (anti-CII TCR transgenic, 10 μM), 6.1%. Moreover, the “Late apoptosis (PI+ AnnV+)” value in [7] (setting [20]) came out at 0.6%; in data set [7] (setting [21]), 1.2%; in [7] (setting [22]) it was 0.9%; in data set [7] (setting [23]), 1.1%; in [7] (setting [24]) it was 0.7%; in data set [7] (setting [25]), 0.9%. The “Late apoptosis (PI+ AnnV+)” value in data set [7] (anti-CII TCR transgenic, 1 μM) is 0.5%; in data set [7] (anti-CII TCR transgenic, 5 μM), 0.8%; in data set [7] (anti-CII TCR transgenic, 10 μM) it was 0.9%. The “Live cells (PI− AnnV−)” value in [7] (setting [23]) is 95.5%; in [7] (setting [24]), 93.6%; in [7] (setting [25]) it was 93.7%. Besides, the “SCF-induced phosphorylation of c-Kit” value in data set [8] (setting [26]) was “potently inhibited SCF-induced phosphorylation of c-Kit”. Moreover, the “phosphorylation of downstream Akt (Ser 473)” value in data set [8] (setting [26]) is given as “corresponding reduction in phosphorylation of downstream Akt (Ser 473)”. The “SCF-induced activation of kinases downstream of c-Kit (ERK, JNK, p38), RPP array” value in data set [8] (1 and 5 μM imatinib) is reported as “inhibited SCF-induced activation of diverse protein tyrosine kinases downstream of c-Kit”. For the same molecule, the “CIA efficacy compared to PBS vehicle-control” value in data set [9] (15 mg/kg imatinib, FIG. 16A) is “relatively little efficacy”. Besides, the “severity of CIA (mean visual arthritis score, mean paw thickness)” value in [9] (33 or 100 mg/kg orally twice-daily from 1 day prior to induction, p<0.01 after day 38) is given as “significant reductions in the severity of CIA”. The “incidence of CIA” value in data set [9] (33 or 100 mg/kg orally twice-daily, day 49) was “reduced the incidence of CIA”. Also, the “severity of CIA (scores, paw measurements), direct comparison study” value in [9] (FIG. 13C-13D) is “statistically significant reductions in the severity of CIA”. The “production of IFN-γ and TNFα by CII-stimulated TCR transgenic T cells” value in [10] (CII 20 μg/mL, 3.3 μM imatinib) is listed as “moderate reduction”. The “production of IFN-gamma, IL-4, and TNFα by CII-stimulated TCR transgenic T cells” value in [10] (CII 20 μg/mL, 10 μM imatinib) is “further reduced production”. The “anti-CII T cell production of IL-2” value in data set [10] (any imatinib concentration tested) is given as “not significantly reduced”. The “mast cell production of TNFα, GM-CSF, and IL-6” value in data set [11] is “dramatically reduced mast cell production of TNFα, GM-CSF, and IL-6”.
As for `Cc1ccc(NC(=O)c2ccccc2)cc1Nc1nccc(-c2cccnc2)n1` [CGP53716], the IC50 was 2 nM in data set [12]; […] in [13]; […] in data set [15]; […] in data set [17]; 1100 nM in [18]; 600 nM in data set [19]. In addition, the values for the plasma level in data set [14] (8 hours after dosing) and in [14] (24 hours after dosing) were 1600 nM and 1900 nM, respectively. In data set [16], the “inhibition of other kinases including EGFR, FGFR, insulin receptors, Src, Lyn, PKA and PKC” value is on record as “does not inhibit other kinases at clinically relevant concentrations”. Besides, the “severity of CIA (scores, paw measurements), direct comparison study” value in [9] (FIG. 13C-13D) is “statistically significant reductions in the severity of CIA”. Also, the “efficacy at preventing and treating CIA relative to imatinib” value in data set [9] (FIG. 13C-13D) is recorded as “nearly as effective as imatinib”.
